Key:
[1] = biological target: Opiate, Mu (Human Recombinant) (Homo sapiens, UniProt P35372); assay: Opiate Mu receptor binding assay
[2] = Pharmacokinetic studies: blood plasma levels and pain relief over 12 hours after administration of oxymorphone; type: in vivo; conditions: for Time at which blood plasma levels peak: after administration of oxymorphone
Description: In two separate studies, blood plasma levels and indications of pain relief were recorded over a 12 hour period after.
After this time, oxymorphone levels again drop and eventually fall to levels near the earlier plateau.
After the initial peak, however, a more or less steady decline in the 6-hydroxy oxymorphones plasma levels is observed.
The amount administered will be dependent upon normal criteria such as patient weight, intensity of pain, and other factors. Based on the pharmacokinetic studies, blood plasma levels around at least 0.2 ng/mL will provide some analgesia. The upper plasma level limit will be ultimately established by safety concerns. […] Subsequent doses may be required to maintain these blood levels.

[3] = biological target: Opiate, Kappa (Human Recombinant (Homo sapiens, UniProt P41145)); assay: Opiate Kappa receptor binding assay
Opiate, Delta 1 = assay: Opiate Delta 1 receptor binding assay
[4] = biological target: Opiate, Delta 2 (Human Recombinant) (Homo sapiens, UniProt P41143); assay: Opiate Delta 2 receptor binding assay
Sequence of Opiate, Delta 2 (Human Recombinant) (P41143 whole entry): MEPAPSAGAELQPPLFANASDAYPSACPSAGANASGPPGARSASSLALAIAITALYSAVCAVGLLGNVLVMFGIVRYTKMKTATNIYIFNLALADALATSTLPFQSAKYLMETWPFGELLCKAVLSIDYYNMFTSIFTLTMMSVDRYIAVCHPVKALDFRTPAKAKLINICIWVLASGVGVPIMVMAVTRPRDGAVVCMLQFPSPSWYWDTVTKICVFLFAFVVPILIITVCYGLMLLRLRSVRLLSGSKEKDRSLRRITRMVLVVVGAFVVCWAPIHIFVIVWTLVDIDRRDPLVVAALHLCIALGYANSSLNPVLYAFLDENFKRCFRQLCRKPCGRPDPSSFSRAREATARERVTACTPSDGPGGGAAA

Sequence of Opiate, Kappa (Human Recombinant (P41145 whole entry): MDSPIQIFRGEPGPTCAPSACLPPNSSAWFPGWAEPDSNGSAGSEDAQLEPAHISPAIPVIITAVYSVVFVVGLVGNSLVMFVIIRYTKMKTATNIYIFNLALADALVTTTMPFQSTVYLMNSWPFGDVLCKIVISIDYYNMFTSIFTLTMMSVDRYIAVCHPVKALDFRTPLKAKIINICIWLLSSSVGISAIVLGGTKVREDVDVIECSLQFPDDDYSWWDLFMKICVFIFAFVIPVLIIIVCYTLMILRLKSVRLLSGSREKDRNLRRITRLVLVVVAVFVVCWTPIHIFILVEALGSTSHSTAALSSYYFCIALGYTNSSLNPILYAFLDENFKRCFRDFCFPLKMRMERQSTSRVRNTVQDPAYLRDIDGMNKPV
Sequence of Opiate, Mu (Human Recombinant) (P35372 whole entry): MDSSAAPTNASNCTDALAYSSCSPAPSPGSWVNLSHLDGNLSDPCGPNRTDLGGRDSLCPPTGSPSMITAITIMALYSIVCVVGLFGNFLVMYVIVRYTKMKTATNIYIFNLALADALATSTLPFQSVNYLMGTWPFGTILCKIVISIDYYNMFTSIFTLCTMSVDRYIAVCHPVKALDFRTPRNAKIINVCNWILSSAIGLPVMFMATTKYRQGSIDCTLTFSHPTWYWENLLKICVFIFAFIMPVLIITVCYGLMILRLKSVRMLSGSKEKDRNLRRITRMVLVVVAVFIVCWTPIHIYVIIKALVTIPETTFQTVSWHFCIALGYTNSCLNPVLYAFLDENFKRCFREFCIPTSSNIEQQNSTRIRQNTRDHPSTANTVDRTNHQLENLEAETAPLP

Compound | Assay report, binding, Opiate Mu ([1]; 10 nm (1.0 E−8)) [%] | Assay report, binding, Opiate Mu ([1]; 10 μm (1.0 E−5)) [%] | Time at which blood plasma levels peak [2] [h] | Blood plasma level that provides some analgesia ([2]; based on the pharmacokinetic studies) | Assay report, binding, Opiate Kappa ([3]; 10 nm (1.0 E−8)) [%] | Assay report, binding, Opiate Kappa ([3]; 10 μm (1.0 E−5)) [%] | Assay report, binding, Opiate Delta 1 (Opiate, Delta 1; 10 nm (1.0 E−8)) [%] | Assay report, binding, Opiate Delta 1 (Opiate, Delta 1; 10 μm (1.0 E−5)) [%] | Assay report, binding, Opiate Delta 2 ([4]; 10 nm (1.0 E−8)) [%] | Assay report, binding, Opiate Delta 2 ([4]; 10 μm (1.0 E−5)) [%] | Time at which the blood plasma level spikes again ([2]; from administration of oxymorphone) [h]
CN1CC[C@]23c4c5ccc(O)c4O[C@H]2C(O)CC[C@@]3(O)[C@H]1C5 (some centres unmarked) [6-HYDROXY OXYMORPHONE, 6-hydroxy oxymorphone] | 63.16 | 99.91 | ≤ 2 | at least 0.2 ng/mL | 2.45 | 62.47 | −4.12 | 90.48 | 7.19 | 55.45 | –
CN1CC[C@]23c4c5ccc(O)c4O[C@H]2C(=O)CC[C@@]3(O)[C@H]1C5 [OXYMORPHONE, oxymorphone] | – | – | ≤ 2 | – | – | – | −18.26 | 89.03 | – | – | 4 to 6

— patent publication US20030130297A1, “Oral administration of 6-hydroxy-oxymorphone for use as an analgesic” (Endo Pharmaceuticals, Inc., priority 2001, published 2003)
